Experimental data from the NIST ThermoML archive (doi:10.1016/j.fluid.2015.12.007).
Numbers after ± are expanded uncertainties.

Assay: xn = mol fraction of the nth substance listed
Conditions: 101 kPa, Liquid; for speed of sound: Sing-around technique in a fixed-path interferometer; for mass density: Vibrating tube method

Work on `CCCCn1cc[n+](C)c1.COS(=O)(=O)[O-]` [1-butyl-3-methylimidazolium methyl sulfate] + CC(O)CO yielded a speed of sound (293.15 K, x1 = 0.0574) of 1541.9 ± 1.4 m/s, a speed of sound (293.15 K, x1 = 0.1155) of 1554.6 ± 1.4 m/s and a speed of sound (293.15 K, x1 = 0.2102) of 1573.6 ± 1.6 m/s. For the same compound, the speed of sound (293.15 K, x1 = 0.3133) was 1591.4 ± 1.8 m/s, the speed of sound (293.15 K, x1 = 0.4151) was 1602.8 ± 2 m/s and the speed of sound (293.15 K, x1 = 0.5038) was 1613.5 ± 2.1 m/s. It also gave a speed of sound (293.15 K, x1 = 0.6026) of 1626 ± 2.4 m/s, a speed of sound (293.15 K, x1 = 0.6996) of 1636.8 ± 2.6 m/s and a speed of sound (293.15 K, x1 = 0.8095) of 1649.4 ± 2.8 m/s. For the same compound, the speed of sound (293.15 K, x1 = 0.9003) was 1660.2 ± 3 m/s, the mass density (293.15 K, x1 = 0.0574) was 1061.11 ± 0.17 kg/m3 and the mass density (293.15 K, x1 = 0.1155) was 1081.09 ± 0.22 kg/m3. For the same compound, the mass density (293.15 K, x1 = 0.2102) was 1107.07 ± 0.33 kg/m3, the mass density (293.15 K, x1 = 0.3133) was 1130.01 ± 0.5 kg/m3 and the mass density (293.15 K, x1 = 0.4151) was 1148.5 ± 0.72 kg/m3. It also gave a mass density (293.15 K, x1 = 0.5038) of 1162.16 ± 0.94 kg/m3, a mass density (293.15 K, x1 = 0.6026) of 1174.98 ± 1.2 kg/m3 and a mass density (293.15 K, x1 = 0.6996) of 1185.85 ± 1.5 kg/m3. It also gave a mass density (293.15 K, x1 = 0.8095) of 1196.11 ± 2 kg/m3, a mass density (293.15 K, x1 = 0.9003) of 1204.12 ± 2.4 kg/m3 and a speed of sound (298.15 K, x1 = 0.0574) of 1528.2 ± 1.4 m/s. It also gave a speed of sound (298.15 K, x1 = 0.1155) of 1541.1 ± 1.4 m/s, a speed of sound (298.15 K, x1 = 0.2102) of 1560.2 ± 1.6 m/s and a speed of sound (298.15 K, x1 = 0.3133) of 1578.4 ± 1.8 m/s. The speed of sound (298.15 K, x1 = 0.4151) was 1589.9 ± 2 m/s, the speed of sound (298.15 K, x1 = 0.5038) was 1600.8 ± 2.1 m/s and the speed of sound (298.15 K, x1 = 0.6026) was 1613.1 ± 2.4 m/s. For the same compound, the speed of sound (298.15 K, x1 = 0.6996) was 1624.2 ± 2.6 m/s, the speed of sound (298.15 K, x1 = 0.8095) was 1636.8 ± 2.8 m/s and the speed of sound (298.15 K, x1 = 0.9003) was 1647.5 ± 3 m/s. It also gave a mass density (298.15 K, x1 = 0.0574) of 1057.45 ± 0.17 kg/m3, a mass density (298.15 K, x1 = 0.1155) of 1077.45 ± 0.21 kg/m3 and a mass density (298.15 K, x1 = 0.2102) of 1103.5 ± 0.33 kg/m3. The mass density (298.15 K, x1 = 0.3133) was 1126.47 ± 0.5 kg/m3, the mass density (298.15 K, x1 = 0.4151) was 1145.03 ± 0.71 kg/m3 and the mass density (298.15 K, x1 = 0.5038) was 1158.71 ± 0.93 kg/m3. The mass density (298.15 K, x1 = 0.6026) was 1171.59 ± 1.2 kg/m3, the mass density (298.15 K, x1 = 0.6996) was 1182.44 ± 1.5 kg/m3 and the mass density (298.15 K, x1 = 0.8095) was 1192.74 ± 2 kg/m3. The mass density (298.15 K, x1 = 0.9003) was 1200.82 ± 2.3 kg/m3, the speed of sound (303.15 K, x1 = 0.0574) was 1514.5 ± 1.4 m/s and the speed of sound (303.15 K, x1 = 0.1155) was 1527.5 ± 1.4 m/s. The speed of sound (303.15 K, x1 = 0.2102) was 1546.9 ± 1.6 m/s, the speed of sound (303.15 K, x1 = 0.3133) was 1565.2 ± 1.8 m/s and the speed of sound (303.15 K, x1 = 0.4151) was 1577.1 ± 2 m/s. The speed of sound (303.15 K, x1 = 0.5038) was 1588.2 ± 2.1 m/s, the speed of sound (303.15 K, x1 = 0.6026) was 1600.5 ± 2.4 m/s and the speed of sound (303.15 K, x1 = 0.6996) was 1611.8 ± 2.6 m/s. For the same compound, the speed of sound (303.15 K, x1 = 0.8095) was 1624.5 ± 2.8 m/s, the speed of sound (303.15 K, x1 = 0.9003) was 1635 ± 3 m/s and the mass density (303.15 K, x1 = 0.0574) was 1053.78 ± 0.17 kg/m3. The mass density (303.15 K, x1 = 0.1155) was 1073.81 ± 0.21 kg/m3, the mass density (303.15 K, x1 = 0.2102) was 1099.9 ± 0.33 kg/m3 and the mass density (303.15 K, x1 = 0.3133) was 1122.94 ± 0.5 kg/m3. It also gave a mass density (303.15 K, x1 = 0.4151) of 1141.57 ± 0.71 kg/m3, a mass density (303.15 K, x1 = 0.5038) of 1155.27 ± 0.92 kg/m3 and a mass density (303.15 K, x1 = 0.6026) of 1168.22 ± 1.2 kg/m3. For the same compound, the mass density (303.15 K, x1 = 0.6996) was 1179.05 ± 1.5 kg/m3, the mass density (303.15 K, x1 = 0.8095) was 1189.38 ± 1.9 kg/m3 and the mass density (303.15 K, x1 = 0.9003) was 1197.47 ± 2.3 kg/m3. The speed of sound (308.15 K, x1 = 0.0574) was 1500.8 ± 1.4 m/s, the speed of sound (308.15 K, x1 = 0.1155) was 1513.9 ± 1.4 m/s and the speed of sound (308.15 K, x1 = 0.2102) was 1533.6 ± 1.6 m/s. For the same compound, the speed of sound (308.15 K, x1 = 0.3133) was 1552.2 ± 1.8 m/s, the speed of sound (308.15 K, x1 = 0.4151) was 1564.4 ± 2 m/s and the speed of sound (308.15 K, x1 = 0.5038) was 1575.8 ± 2.1 m/s. It also gave a speed of sound (308.15 K, x1 = 0.6026) of 1588.2 ± 2.4 m/s, a speed of sound (308.15 K, x1 = 0.6996) of 1599.6 ± 2.6 m/s and a speed of sound (308.15 K, x1 = 0.8095) of 1612.3 ± 2.8 m/s. It also gave a speed of sound (308.15 K, x1 = 0.9003) of 1622.9 ± 3 m/s, a mass density (308.15 K, x1 = 0.0574) of 1050.08 ± 0.16 kg/m3 and a mass density (308.15 K, x1 = 0.1155) of 1070.14 ± 0.21 kg/m3. It also gave a mass density (308.15 K, x1 = 0.2102) of 1096.3 ± 0.32 kg/m3, a mass density (308.15 K, x1 = 0.3133) of 1119.41 ± 0.49 kg/m3 and a mass density (308.15 K, x1 = 0.4151) of 1138.1 ± 0.7 kg/m3. It also gave a mass density (308.15 K, x1 = 0.5038) of 1151.85 ± 0.92 kg/m3, a mass density (308.15 K, x1 = 0.6026) of 1164.85 ± 1.2 kg/m3 and a mass density (308.15 K, x1 = 0.6996) of 1175.66 ± 1.5 kg/m3. The mass density (308.15 K, x1 = 0.8095) was 1186.03 ± 1.9 kg/m3, the mass density (308.15 K, x1 = 0.9003) was 1194.14 ± 2.3 kg/m3 and the speed of sound (313.15 K, x1 = 0.0574) was 1487.1 ± 1.4 m/s. For the same compound, the speed of sound (313.15 K, x1 = 0.1155) was 1500.4 ± 1.4 m/s, the speed of sound (313.15 K, x1 = 0.2102) was 1520.3 ± 1.6 m/s and the speed of sound (313.15 K, x1 = 0.3133) was 1539.2 ± 1.8 m/s. For the same compound, the speed of sound (313.15 K, x1 = 0.4151) was 1551.8 ± 2 m/s, the speed of sound (313.15 K, x1 = 0.5038) was 1563.4 ± 2.1 m/s and the speed of sound (313.15 K, x1 = 0.6026) was 1576 ± 2.4 m/s. For the same compound, the speed of sound (313.15 K, x1 = 0.6996) was 1587.6 ± 2.6 m/s, the speed of sound (313.15 K, x1 = 0.8095) was 1600.3 ± 2.8 m/s and the speed of sound (313.15 K, x1 = 0.9003) was 1610.9 ± 3 m/s. For the same compound, the mass density (313.15 K, x1 = 0.0574) was 1046.36 ± 0.16 kg/m3, the mass density (313.15 K, x1 = 0.1155) was 1066.46 ± 0.21 kg/m3 and the mass density (313.15 K, x1 = 0.2102) was 1092.68 ± 0.32 kg/m3. It also gave a mass density (313.15 K, x1 = 0.3133) of 1115.88 ± 0.49 kg/m3, a mass density (313.15 K, x1 = 0.4151) of 1134.64 ± 0.7 kg/m3 and a mass density (313.15 K, x1 = 0.5038) of 1148.44 ± 0.91 kg/m3. The mass density (313.15 K, x1 = 0.6026) was 1161.48 ± 1.2 kg/m3, the mass density (313.15 K, x1 = 0.6996) was 1172.29 ± 1.5 kg/m3 and the mass density (313.15 K, x1 = 0.8095) was 1182.71 ± 1.9 kg/m3. The mass density (313.15 K, x1 = 0.9003) was 1190.84 ± 2.3 kg/m3, the speed of sound (318.15 K, x1 = 0.0574) was 1473.6 ± 1.4 m/s and the speed of sound (318.15 K, x1 = 0.1155) was 1487.1 ± 1.4 m/s. For the same compound, the speed of sound (318.15 K, x1 = 0.2102) was 1507.4 ± 1.6 m/s, the speed of sound (318.15 K, x1 = 0.3133) was 1526.4 ± 1.8 m/s and the speed of sound (318.15 K, x1 = 0.4151) was 1539.2 ± 2 m/s. It also gave a speed of sound (318.15 K, x1 = 0.5038) of 1551.5 ± 2.1 m/s, a speed of sound (318.15 K, x1 = 0.6026) of 1563.8 ± 2.4 m/s and a speed of sound (318.15 K, x1 = 0.6996) of 1576 ± 2.6 m/s. For the same compound, the speed of sound (318.15 K, x1 = 0.8095) was 1588.5 ± 2.8 m/s, the speed of sound (318.15 K, x1 = 0.9003) was 1599 ± 3 m/s and the mass density (318.15 K, x1 = 0.0574) was 1042.62 ± 0.16 kg/m3. The mass density (318.15 K, x1 = 0.1155) was 1062.78 ± 0.21 kg/m3, the mass density (318.15 K, x1 = 0.2102) was 1089.06 ± 0.32 kg/m3 and the mass density (318.15 K, x1 = 0.3133) was 1112.34 ± 0.48 kg/m3. For the same compound, the mass density (318.15 K, x1 = 0.4151) was 1131.18 ± 0.69 kg/m3, the mass density (318.15 K, x1 = 0.5038) was 1145.05 ± 0.91 kg/m3 and the mass density (318.15 K, x1 = 0.6026) was 1158.11 ± 1.2 kg/m3. The mass density (318.15 K, x1 = 0.6996) was 1168.92 ± 1.5 kg/m3, the mass density (318.15 K, x1 = 0.8095) was 1179.39 ± 1.9 kg/m3 and the mass density (318.15 K, x1 = 0.9003) was 1187.56 ± 2.3 kg/m3.
